In paper PMC11231114 (EJNMMI Research, 2024):

How the values were obtained:
[1] = Ex vivo biodistribution after i.v. injection; format: in vivo, Wistar rats
Protocol: (§1) Approximately 0.2 mL/31.1 MBq of compound was administered i.v. At established time points after injection (15 min, 30 min, 1 h, 2 h, 4 h and 6 h), the animals were euthanized by cervical dislocation and dissected. Selected organs and tissues were weighed, and their radioactivity was measured using a NaI(Tl) crystal gamma counter. The results were adjusted for the radioactive decay of ^18F. The physiological distribution was calculated and expressed in terms of the percentage of administrated dose found in each of the selected organs (%ID) or per gram of tissues/organ (%ID/g) with suitable standards of the injected dose.
The results of radiopharmaceutical uptake are presented as a percentage of the dose administered per gram of tissue (%ID/g) in the form of an average with standard deviation (%ID/g; mean ± standard deviation (SD)). Where applicable, statistical analysis was performed with one-way analysis of variance (ANOVA) using GraphPad Prism software (GraphPad Software, La Jolla, CA, USA).

[2] = Blood activity clearance and pharmacokinetic parameters of radiolabelled compounds; format: in vivo; details: radiolabelled compound, rat
Protocol: as §1
For [^18F]SYN2 the initial fast decrease mainly represents the equilibrium between the intravascular and extravascular components, and the second slower phase represents the metabolism.

[3] = 6 h after dosing, listed as [18F]SYN2

In the case of `CN(C)c1ccc2cc3ccc(N(C)C)cc3[n+](CC[18F])c2c1` [[^18F]SYN2], the “Mean %ID, Kidneys” value ([1]; 2 h after dosing) is reported as 9.65 (1.42) %ID, the “Mean %ID, Liver” value ([1]; 2 h after dosing) is reported as 2.46 (0.28) %ID and the “Mean %ID, Lungs” value ([1]; 2 h after dosing) is reported as 1.25 (0.31) %ID. The “Mean %ID, Pancreas” value ([1]; 2 h after dosing) was 0.94 (0.22) %ID, the “Mean %ID, Rest of the body” value ([1]; 2 h after dosing) was 44.09 (5.00) %ID and the “Mean %ID, Spleen” value ([1]; 2 h after dosing) was 0.44 (0.04) %ID. The “Mean %ID, Stomach” value ([1]; 2 h after dosing) was 1.66 (0.16) %ID, the “Mean %ID, Urine” value ([1]; 2 h after dosing) was 3.94 (3.35) %ID and the “Mean %ID/g, Blood” value ([1]; 2 h after dosing) was 0.04 (0.00) %ID/g. The “Mean %ID/g, Brain” value ([1]; 2 h after dosing) was 0.07 (0.00) %ID/g, the “Mean %ID/g, Heart” value ([1]; 2 h after dosing) was 2.58 (0.24) %ID/g and the “Mean %ID/g, Intestine” value ([1]; 2 h after dosing) was 1.50 (0.24) %ID/g. For the same molecule, the “Mean %ID/g, Kidneys” value ([1]; 2 h after dosing) was 5.10 (0.85) %ID/g, the “Mean %ID/g, Liver” value ([1]; 2 h after dosing) was 0.30 (0.04) %ID/g and the “Mean %ID/g, Lungs” value ([1]; 2 h after dosing) was 0.90 (0.22) %ID/g. The “Mean %ID/g, Muscle” value ([1]; 2 h after dosing) was 0.41 (0.09) %ID/g, the “Mean %ID/g, Pancreas” value ([1]; 2 h after dosing) was 1.55 (0.36) %ID/g and the “Mean %ID/g, Spleen” value ([1]; 2 h after dosing) was 0.84 (0.11) %ID/g. For the same molecule, the “Mean %ID/g, Stomach” value ([1]; 2 h after dosing) was 1.23 (0.22) %ID/g, the “Mean %ID, Brain” value ([1]; 4 h after dosing) was 0.25 (0.04) %ID and the “Mean %ID, Heart” value ([1]; 4 h after dosing) was 2.15 (0.08) %ID. For the same molecule, the “Mean %ID, Intestine” value ([1]; 4 h after dosing) was 30.51 (0.47) %ID, the “Mean %ID, Kidneys” value ([1]; 4 h after dosing) was 5.20 (0.36) %ID and the “Mean %ID, Liver” value ([1]; 4 h after dosing) was 1.71 (0.27) %ID. For the same molecule, the “Mean %ID, Lungs” value ([1]; 4 h after dosing) was 0.89 (0.02) %ID, the “Mean %ID, Pancreas” value ([1]; 4 h after dosing) was 0.84 (0.35) %ID and the “Mean %ID, Rest of the body” value ([1]; 4 h after dosing) was 44.50 (2.38) %ID. The “Mean %ID, Spleen” value ([1]; 4 h after dosing) was 0.32 (0.03) %ID, the “Mean %ID, Stomach” value ([1]; 4 h after dosing) was 1.94 (0.38) %ID and the “Mean %ID, Urine” value ([1]; 4 h after dosing) was 12.42 (1.40) %ID. For the same molecule, the “Mean %ID/g, Blood” value ([1]; 4 h after dosing) was 0.06 (0.02) %ID/g, the “Mean %ID/g, Brain” value ([1]; 4 h after dosing) was 0.13 (0.02) %ID/g and the “Mean %ID/g, Heart” value ([1]; 4 h after dosing) was 2.68 (0.44) %ID/g. The “Mean %ID/g, Intestine” value ([1]; 4 h after dosing) was 1.88 (0.10) %ID/g, the “Mean %ID/g, Kidneys” value ([1]; 4 h after dosing) was 2.86 (0.08) %ID/g and the “Mean %ID/g, Liver” value ([1]; 4 h after dosing) was 0.21 (0.05) %ID/g. For the same molecule, the “Mean %ID/g, Lungs” value ([1]; 4 h after dosing) was 0.70 (0.02) %ID/g, the “Mean %ID/g, Muscle” value ([1]; 4 h after dosing) was 0.51 (0.04) %ID/g and the “Mean %ID/g, Pancreas” value ([1]; 4 h after dosing) was 1.56 (0.06) %ID/g. For the same molecule, the “Mean %ID/g, Spleen” value ([1]; 4 h after dosing) was 0.66 (0.06) %ID/g, the “Mean %ID/g, Stomach” value ([1]; 4 h after dosing) was 1.58 (0.25) %ID/g and the “Mean %ID, Brain” value ([1]; 6 h after dosing) was 0.21 (0.02) %ID. The “Mean %ID, Heart” value ([1]; 6 h after dosing) was 2.27 (0.21) %ID, the “Mean %ID, Intestine” value ([1]; 6 h after dosing) was 33.4 ± 1.4 %ID and the “Mean %ID, Kidneys” value ([1]; 6 h after dosing) was 3.4 ± 0.4 %ID. For the same molecule, the “Mean %ID, Liver” value ([1]; 6 h after dosing) was 1.07 (0.11) %ID, the “Mean %ID, Lungs” value ([1]; 6 h after dosing) was 0.78 (0.14) %ID and the “Mean %ID, Pancreas” value ([1]; 6 h after dosing) was 0.80 (0.05) %ID. For the same molecule, the “Mean %ID, Rest of the body” value ([1]; 6 h after dosing) was 44.67 (1.68) %ID, the “Mean %ID, Spleen” value ([1]; 6 h after dosing) was 0.29 (0.02) %ID and the “Mean %ID, Stomach” value ([1]; 6 h after dosing) was 1.53 (0.15) %ID. The “Mean %ID, Urine” value ([1]; 6 h after dosing) was 15.27 (0.87) %ID, the “Mean %ID/g, Blood” value ([1]; 6 h after dosing) was 0.04 (0.01) %ID/g and the “Mean %ID/g, Brain” value ([1]; 6 h after dosing) was 0.13 (0.01) %ID/g. The “Mean %ID/g, Heart” value ([1]; 6 h after dosing) was 2.79 %ID/g, the “Mean %ID/g, Intestine” value ([1]; 6 h after dosing) was 2.00 (0.49) %ID/g and the “Mean %ID/g, Kidneys” value ([1]; 6 h after dosing) was 1.69 (0.22) %ID/g. For the same molecule, the “Mean %ID/g, Liver” value ([1]; 6 h after dosing) was 0.12 (0.02) %ID/g, the “Mean %ID/g, Lungs” value ([1]; 6 h after dosing) was 0.55 (0.08) %ID/g and the “Mean %ID/g, Muscle” value ([1]; 6 h after dosing) was 0.53 (0.05) %ID/g. The “Mean %ID/g, Pancreas” value ([1]; 6 h after dosing) was 1.27 (0.10) %ID/g, the “Mean %ID/g, Spleen” value ([1]; 6 h after dosing) was 0.56 (0.02) %ID/g and the “Mean %ID/g, Stomach” value ([1]; 6 h after dosing) was 1.12 (0.12) %ID/g. The “Mean %ID, Intestine” value [1, 3] was 33.42 (1.37) %ID, the “Mean %ID, Kidneys” value [1, 3] was 3.44 (0.37) %ID and the “retention in all other organs examined (other than intestine, kidneys)” value ([1]; ex vivo biodistribution) was less than 2 %ID/g. For the same molecule, the myocardial uptake ([1]; from 2 to 6 h) was 2.6–2.8 %ID/g, the “uptake in the myocardium” value ([1]; up to 6 h) was “higher than 2.5 %ID/g” and the myocardial uptake ([1]; within 1-hour post-injection) was “about 3.0 %ID/g”. It also gave an AUCt ([2]; i.v.) of 421 ng·h/mL, a Cl ([2]; i.v.) of 0.2 mL/min/kg and a Cmax ([2]; i.v.) of 76.39 ng/mL. It also gave a Tmax ([2]; i.v.) of 0 h, a Vz ([2]; i.v.) of 1.43 L/kg and a T½ ([2]; calculated from Eq. (0.693 · VZ · AUC)/dose) of 79.9 h.
